Entries after “also recorded” stand apart in the source; their conditions may differ.
Key:
[1] = In vitro release (elution testing) of injectable formulations in sterile PBS at 37 degrees C.; format: physicochemical; settings: drug encapsulated in SAIB nanoparticles suspended in hyaluronic acid solution, dialysis tubing, 50 rpm, UV-Vis
Description: About 21 mg of curcumin was dissolved in 2 ml of DMSO/SAIB (9:1 ratio of DMSO to SAIB in ethanol). The concentration of SAIB in the solution was about 104 mg per ml of DMSO/SAIB/Ethanol solution. This solution of curcumin/DMSO/SAIB/Ethanol was added drop wise to PBS while stirring. The nanoparticles of curcumin/SAIB formed when the DMSO/ethanol diffused out into the PBS (FIG. 3). 0.5 ml of the nanoparticle solution was then mixed with 2.5 ml of 1% Hyaluronic acid (HA) in PBS. The final mixture was then used for testing of injectability and for elution study.
Elution testing of various injectable formulations as described in example 2 was carried out in sterile PBS and at 37 degrees C. Drugs such as rapamycin, curcumin and sulfasalazine were used in the testing of various formulations. Each formulation was pipetted into a segment of dialysis tubing (Sigma Cat. D0530) with both ends of the tubing sealed. The dialysis tubing with the formulation was then placed inside a container and 15 ml of sterile PBS was added to the container. The container was then placed in an incubator shaker at 37 degrees C., 50 rpm and samples were withdrawn at regular time intervals and replaced with fresh sterile PBS. The samples were measured photometrically (UV-Vis) at a wavelength of 420 nanometers for curcumin, 359 nanometers for sulfasalazine and 278 nanometers for rapamycin.

[2] = Injectable formulation of sulfasalazine in SAIB/DMSO injected into an aqueous environment; format: physicochemical; settings: drug/DMSO mixed 1:1 with SAIB gel (90% in ethanol)
Source text: FIG. 2 is a drawing of the injectable formulation of FIG. 1 when injected into an aqueous environment. The liquid formulation of drug, DMSO and SAIB formed a liquid gel after the ethanol component in the SAIB and DMSO diffused out into the water. […] Controlled release of the drug over a long period of time can be beneficial to treat chronic inflammation in osteoarthritis. A known amount of sulfasalazine was weighed and dissolved in DMSO. This solution of sulfasalazine/DMSO was then mixed in 1:1 ratio with SAIB gel (90% by weight in ethanol). The mixture as shown in FIG. 1 can be loaded into a syringe and injected through a 20 GA needle. The mixture formed a gel that encapsulated the drug after the solvents (DMSO and ethanol) diffused out of the aqueous environment (FIG. 2).

[3] = cited from earlier work

| Structure (SMILES) | release kinetics of drug from the injectable formulation [1] | release of drug from the SAIB gel [2] | water solubility [3] |
| --- | --- | --- | --- |
| COc1cc(/C=C/C(=O)CC(=O)/C=C/c2ccc(O)c(OC)c2)ccc1O [curcumin, Curcumin] | released over an extended period of time; also recorded: controlled release manner | – | – |
| O=C(O)c1cc(/N=N/c2ccc(S(=O)(=O)Nc3ccccn3)cc2)ccc1O [sulfasalazine, Sulfasalazine] | high at the beginning and level off quickly in a few days | slowly diffused out of the gel in a controlled release manner | slightly water soluble |

— patent US20170079989A1, “METHOD FOR TREATMENT OF OSTEOARTHRITIS AND OTHER JOINT RELATED INJURIES AND CONDITIONS” (priority 2010, published 2017)
